Measurements from ChEMBL document CHEMBL4350967, “The Trifluoromethyl Group as a Bioisosteric Replacement of the Aliphatic Nitro Group in CB1 Receptor Positive Allosteric Modulators” (J Med Chem, 2019).
Active and inactive are the calls of the source. No cut-off for these calls is given here.

How the values were obtained:
Cannabinoid receptor 1 [1] = target: T1, Cannabinoid receptor 1 (Homo sapiens, UniProt P21554); assay: Positive allosteric modulation of human CB1 receptor expressed in CHOK1 cells assessed as increase in CP55940-induced beta-arrestin recruitment at 200 nM preincubated for 30 mins followed by CP55940 addition and measured after 90 to 180 mins by PathHunter assay relative to CP55940; type: cell-based
T1 sequence (P21554 whole entry): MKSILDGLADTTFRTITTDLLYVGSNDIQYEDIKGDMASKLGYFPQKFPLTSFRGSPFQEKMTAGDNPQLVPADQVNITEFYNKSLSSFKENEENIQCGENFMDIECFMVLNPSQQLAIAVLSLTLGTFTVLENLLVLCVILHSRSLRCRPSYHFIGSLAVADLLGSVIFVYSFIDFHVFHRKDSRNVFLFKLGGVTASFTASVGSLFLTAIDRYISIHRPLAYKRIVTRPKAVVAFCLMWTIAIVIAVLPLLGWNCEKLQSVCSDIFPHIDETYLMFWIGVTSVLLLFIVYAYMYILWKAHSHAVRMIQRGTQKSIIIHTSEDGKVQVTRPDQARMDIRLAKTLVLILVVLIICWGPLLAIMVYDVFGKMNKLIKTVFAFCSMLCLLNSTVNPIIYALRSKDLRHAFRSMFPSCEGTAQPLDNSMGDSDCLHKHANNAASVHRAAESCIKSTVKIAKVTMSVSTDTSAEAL

Cannabinoid receptor 1 [2] = target: T1, Cannabinoid receptor 1; assay: Positive allosteric modulation of human CB1 receptor expressed in CHOK1 cells assessed as increase in CP55940-induced beta-arrestin recruitment preincubated for 30 mins followed by CP55940 addition and measured after 90 to 180 mins by PathHunter assay; type: cell-based
Mus musculus [3] = assay: Antiallodynic activity in C57BL/6J mouse model of CCI-induced neuropathic pain assessed as reduction in mechanical sensitivity in contralateral paw at 40 mg/kg, ip by Von frey filament test; type: functional, organism-based; conditions: TDE = time-dependent effect
Mus musculus [4] = assay: Psychoactive effect in C57BL/6J mouse assessed as effect on locomotor activity by measuring change in distance travelled at 40 mg/kg, ip measured after 30 mins; type: ADME, organism-based; conditions: in vivo, 0.5 h
Mus musculus [5] = assay: Psychoactive effect in C57BL/6J mouse assessed as effect on locomotor activity by measuring change in immobility time at 40 mg/kg, ip measured after 30 mins; type: ADME, organism-based; conditions: in vivo, 0.5 h
Mus musculus [6] = assay: Antiallodynic activity in C57BL/6J mouse model of CCI-induced neuropathic pain assessed as reduction in mechanical sensitivity in ipsilateral paw at 40 mg/kg, ip by Von frey filament test; type: functional, organism-based; conditions: TDE = time-dependent effect
Mus musculus [7] = assay: Psychoactive effect in C57BL/6J mouse assessed as antinociceptive effect at 40 mg/kg, ip measured after 30 mins by warm water tail withdrawal assay; type: ADME, organism-based; conditions: in vivo, 0.5 h
Mus musculus [8] = assay: Psychoactive effect in C57BL/6J mouse assessed as hypothermia by measuring change in rectal temperature at 40 mg/kg, ip measured after 30 mins; type: ADME, organism-based; conditions: in vivo, 0.5 h
Mus musculus [9] = assay: Psychoactive effect in C57BL/6J mouse assessed as change in immobility time at 40 mg/kg, ip measured after 30 mins by catalepsy bar test; type: ADME, organism-based; conditions: in vivo, 0.5 h
Mus musculus [10] = assay: Enhancement of CP55940-induced antinociceptive activity in C57BL/6J mouse assessed as increase in tail withdrawal latency at 40 mg/kg, ip pretreated for 15 mins followed by CP55940 addition and measured after 30 mins by warm water tail withdrawal assay; type: functional, organism-based
Cannabinoid receptor 1 [11] = target: T1, Cannabinoid receptor 1; assay: Agonist activity at human CB1 receptor expressed in CHOK1 cells assessed as induction of beta-arrestin recruitment measured after 30 mins by PathHunter assay; type: cell-based
Cannabinoid receptor 1 [12] = target: T1, Cannabinoid receptor 1; assay: Positive allosteric modulation of human CB1 receptor expressed in CHOK1 cells assessed as increase in CP55940-induced beta-arrestin recruitment at 300 nM preincubated for 30 mins followed by CP55940 addition and measured after 90 to 180 mins by PathHunter assay relative to CP55940; type: cell-based
Cannabinoid receptor 1 [13] = target: T1, Cannabinoid receptor 1; assay: Positive allosteric modulation of human CB1 receptor expressed in CHOK1 cells assessed as increase in CP55940-induced beta-arrestin recruitment at 500 nM preincubated for 30 mins followed by CP55940 addition and measured after 90 to 180 mins by PathHunter assay relative to CP55940; type: cell-based
[14] = Half life in rat liver microsomes at 3 uM in presence of NADPH by LC-MS/MS analysis; type: ADME, Microsome
Cannabinoid receptor 1 [15] = target: T1, Cannabinoid receptor 1; assay: Positive allosteric modulation of human CB1 receptor expressed in CHOK1 cells assessed as increase in CP55940-induced beta-arrestin recruitment preincubated for 30 mins followed by CP55940 addition and measured after 90 to 180 mins by PathHunter assay relative to CP55940; type: cell-based
[16] = Half life in human liver microsomes at 3 uM in presence of NADPH by LC-MS/MS analysis; type: ADME, Microsome
Cannabinoid receptor 1 [17] = target: T1, Cannabinoid receptor 1; assay: Agonist activity at human Gi/Go-coupled CB1 receptor expressed in CHOK1 cells assessed as inhibition of forskolin-stimulated cAMP production measured after 30 mins by Hit-hunter assay relative to CP55940; type: cell-based; conditions: 0.5 h
Cannabinoid receptor 1 [18] = target: T1, Cannabinoid receptor 1
Cannabinoid receptor 1 [19] = target: T1, Cannabinoid receptor 1; assay: Agonist activity at human Gi/Go-coupled CB1 receptor expressed in CHOK1 cells assessed as inhibition of forskolin-stimulated cAMP production measured after 30 mins by Hit-hunter assay
Cannabinoid receptor 1 [20] = target: T1, Cannabinoid receptor 1; assay: Positive allosteric modulation of human Gi/Go-coupled CB1 receptor expressed in CHOK1 cells assessed as increase in CP55940-induced inhibition of forskolin-stimulated cAMP production preincubated for 30 mins followed by CP55940 addition and measured after 30 to 60 mins by Hit-hunter assay relative to CP55940; type: functional, cell-based
[21] = target: Cannabinoid receptor 1 (Mus musculus) (UniProt P47746); assay: Positive allosteric modulation of CB1 receptor in mouse brain membranes assessed as increase in [3H]CP55940 binding at 1 uM measured after 60 mins relative to control; type: cell membranes
Chain of Cannabinoid receptor 1 (Mus musculus) (P47746 whole entry): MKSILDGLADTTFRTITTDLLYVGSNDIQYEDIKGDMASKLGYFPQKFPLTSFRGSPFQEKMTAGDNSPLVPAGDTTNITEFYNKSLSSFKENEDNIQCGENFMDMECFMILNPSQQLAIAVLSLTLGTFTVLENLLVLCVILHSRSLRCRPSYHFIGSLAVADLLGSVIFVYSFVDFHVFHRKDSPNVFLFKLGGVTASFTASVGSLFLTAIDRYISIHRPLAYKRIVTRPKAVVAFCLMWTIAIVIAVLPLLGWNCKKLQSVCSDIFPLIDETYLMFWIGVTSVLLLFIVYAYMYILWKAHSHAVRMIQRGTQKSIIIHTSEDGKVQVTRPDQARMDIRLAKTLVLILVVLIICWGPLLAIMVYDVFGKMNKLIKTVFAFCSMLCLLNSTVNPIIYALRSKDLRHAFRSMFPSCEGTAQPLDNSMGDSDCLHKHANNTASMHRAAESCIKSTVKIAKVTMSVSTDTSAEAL

[22] = Half life in mouse liver microsomes at 3 uM in presence of NADPH by LC-MS/MS analysis; type: ADME, Microsome
Cannabinoid receptor 1 [23] = target: T1, Cannabinoid receptor 1; assay: Positive allosteric modulation of human CB1 receptor expressed in CHOK1 cells assessed as increase in CP55940-induced beta-arrestin recruitment at 1000 nM preincubated for 30 mins followed by CP55940 addition and measured after 90 to 180 mins by PathHunter assay relative to CP55940; type: cell-based

FC(F)(F)CC(c1cccs1)c1c(-c2ccccc2)[nH]c2cc(Cl)ccc12 (racemic)
Activity (Cannabinoid receptor 1 [1]): > 50%

N#Cc1ccc2c(C(CC(F)(F)F)c3cccs3)c(-c3ccccc3)[nH]c2c1 (racemic)
EC50 (Cannabinoid receptor 1 [2]): 177 nM | Activity (Mus musculus [3]): Tde | Activity (Mus musculus [4]): Non-Toxic | Activity (Mus musculus [5]): Non-Toxic | Activity (Mus musculus [6]): Tde | Activity (Mus musculus [7]): Non-Toxic | Activity (Mus musculus [8]): Non-Toxic | Activity (Mus musculus [9]): Non-Toxic | Activity (Mus musculus [10]): Active | EC50 (Cannabinoid receptor 1 [11]): 647 nM

Cc1ccc2c(C(CC(F)(F)F)c3ccccc3)c(-c3ccccc3)[nH]c2c1 (racemic)
Activity (Cannabinoid receptor 1 [12]): 50 to 100% | Activity (Cannabinoid receptor 1 [13]): > 50%

CC(=O)c1ccc2c(C(CC(F)(F)F)c3cccs3)c(-c3ccccc3)[nH]c2c1 (racemic)
EC50 (Cannabinoid receptor 1 [2]): 158 nM | t1/2 [14]: 12.2 min | Emax (Cannabinoid receptor 1 [15]): 121% | t1/2 [16]: 51.2 min | EC50 (Cannabinoid receptor 1 [11]): 741 nM | Activity (Cannabinoid receptor 1 [1]): > 50%

N#Cc1ccc2c(C(C[N+](=O)[O-])c3cccs3)c(-c3ccccc3)[nH]c2c1 (single isomer, unassigned; (-)) [listing 1 of 2 here]
Emax (Cannabinoid receptor 1 [17]): 97% | EC50 (Cannabinoid receptor 1 [2]): 664 nM | EC50 (Cannabinoid receptor 1 [18]): 36 nM | EC50 (Cannabinoid receptor 1 [19]): 46 nM | EC50 (Cannabinoid receptor 1 [11]): > 10000 nM

N#Cc1ccc2c(C(C[N+](=O)[O-])c3cccs3)c(-c3ccccc3)[nH]c2c1 (single isomer, unassigned; (+)) [listing 1 of 2 here]
Emax (Cannabinoid receptor 1 [17]; read-out: Emax): 96% | EC50 (Cannabinoid receptor 1 [2]): 863 nM | EC50 (Cannabinoid receptor 1 [18]): 181 nM | EC50 (Cannabinoid receptor 1 [19]): 251 nM | EC50 (Cannabinoid receptor 1 [11]): > 10000 nM

Cc1ccc2c(C(C[N+](=O)[O-])c3cccs3)c(-c3ccccc3)[nH]c2c1 (racemic)
Emax (Cannabinoid receptor 1 [17]; read-out: Emax): 94% | EC50 (Cannabinoid receptor 1 [2]): 283 nM | Activity (Cannabinoid receptor 1 [13]): > 50% | Activity (Mus musculus [4]): Non-Toxic | Activity (Mus musculus [5]): Non-Toxic | EC50 (Cannabinoid receptor 1 [18]): 18 nM | Emax (Cannabinoid receptor 1 [20]): 98% | Activity (Mus musculus [7]): Non-Toxic | Activity (Mus musculus [8]): Non-Toxic | t1/2 [14]: 6.4 min | Activity [21]: 127% | t1/2 [22]: 10.4 min | Activity (Mus musculus [9]): Non-Toxic | EC50 (Cannabinoid receptor 1 [19]): 32 nM | Emax (Cannabinoid receptor 1 [15]): 106% | t1/2 [16]: 41.2 min | EC50 (Cannabinoid receptor 1 [11]): 777 nM

N#Cc1ccc2c(C(C[N+](=O)[O-])c3cccs3)c(-c3ccccc3)[nH]c2c1 (single isomer, unassigned; (+)) [listing 2 of 2 here]
Emax (Cannabinoid receptor 1 [20]): 102% | Activity [21]: 99% | Emax (Cannabinoid receptor 1 [15]): 51% | Activity (Cannabinoid receptor 1 [23]): > 50%

COC(=O)c1ccc2c(C(CC(F)(F)F)c3cccs3)c(-c3ccccc3)[nH]c2c1 (racemic)
Emax (Cannabinoid receptor 1 [15]): 88% | Activity (Cannabinoid receptor 1 [1]): > 50%

N#Cc1ccc2c([C@@H](CC(F)(F)F)c3cccs3)c(-c3ccccc3)[nH]c2c1
Emax (Cannabinoid receptor 1 [17]; read-out: Emax): 84% | EC50 (Cannabinoid receptor 1 [2]): 363 nM | EC50 (Cannabinoid receptor 1 [18]): 17 nM | t1/2 [14]: 34.9 min | t1/2 [22]: 26.5 min | EC50 (Cannabinoid receptor 1 [19]): 29 nM | t1/2 [16]: 72.3 min | EC50 (Cannabinoid receptor 1 [11]): 828 nM

COC(=O)c1ccc2c(C(CC(F)(F)F)c3cccs3)c(-c3ccccc3)[nH]c2c1 (single isomer, unassigned; (+))
Emax (Cannabinoid receptor 1 [15]): 156% | Activity (Cannabinoid receptor 1 [1]): > 50%

N#Cc1ccc2c([C@H](CC(F)(F)F)c3cccs3)c(-c3ccccc3)[nH]c2c1
Emax (Cannabinoid receptor 1 [17]; read-out: Emax): 89% | EC50 (Cannabinoid receptor 1 [2]): 342 nM | EC50 (Cannabinoid receptor 1 [18]): 40 nM | EC50 (Cannabinoid receptor 1 [19]): 76 nM | EC50 (Cannabinoid receptor 1 [11]): 1210 nM

Cc1ccc2c(C(C(=O)C(F)(F)F)c3ccccc3)c(-c3ccccc3)[nH]c2c1 (racemic)
Activity (Cannabinoid receptor 1 [12]): 50 to 100% | Activity (Cannabinoid receptor 1 [13]): > 50%

FC(F)(F)CC(c1ccccc1)c1c(-c2ccccc2)[nH]c2cc(C(F)(F)F)ccc12 (racemic)
Activity (Cannabinoid receptor 1 [1]): > 50%

N#Cc1ccc2c(C(C[N+](=O)[O-])c3cccs3)c(-c3ccccc3)[nH]c2c1 (single isomer, unassigned; (-)) [listing 2 of 2 here]
Emax (Cannabinoid receptor 1 [20]): 99% | Activity [21]: 108% | Emax (Cannabinoid receptor 1 [15]): 117% | Activity (Cannabinoid receptor 1 [23]): > 50%

COC(=O)c1ccc2c(C(CC(F)(F)F)c3cccs3)c(-c3ccccc3)[nH]c2c1 (single isomer, unassigned; (-))
Activity (Cannabinoid receptor 1 [1]): > 50%
